Test results published in PubChem BioAssay AID179 (DTP/NCI, 2004).
pEC50, pIC50: −log10 of the molar value. Activity calls are given as the source filed them.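 Rule for the calls: active = compounds giving half or more protection of infected cells from virus-caused growth loss, again on retest; inactive = the rest.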

Tested on: CEM cells HIV-1 protection, formazan growth assay
Experiment: NCI AIDS Antiviral Assay
Details: for pIC50: measured here: growth of uninfected CEM cells
Method: The ability of compounds to protect human CEM cells from HIV-1 infection is measured as a screen for new compounds capable of inhibiting the HIV virus. Five concentrations of drug were tested on uninfected and infected cells and cell growth was measured using a soluble formazan assay. […] Compounds that provided at least 50% protection were retested. Compounds that provided at least 50% protection on retest were listed as moderately active. Compounds that reproducibly provided 100% protection were listed as confirmed active. […] Note that the inability to provide protection could be due to toxicity.

Compound | pEC50 | pIC50 | outcome
C[C@@H]1C(=O)c2c(O)cc(O)cc2O[C@@H]1C | < 3.70 | < 3.70 | –
CC(=O)N1C(=O)C2(Nc3cccnc3N2)c2ccccc21 (stereo unspecified) | < 4.00 | < 4.00 | –
Cc1c(CN2CCOCC2)cc(C(C)C)c(O)c1CN1CCOCC1 | < 3.70 | < 3.70 | –
Cc1ccc(C2=[N+]([O-])c3ccccc3C2=O)cc1 | – | – | inactive
COc1cc(Cc2ccc3c(c2C#N)N(C)c2ccccc2S3)cc(OC)c1OC | < 3.70 | 5.44 | –
Cc1cc(/C=C2\C=Cc3ccccc32)ccc1N(C)C | < 4.42 | < 4.42 | –
CC1(O)CCC2(CCC(C)(O)CC2=O)C(=O)C1 (stereo unspecified) | < 3.70 | < 3.70 | –
Cc1ccc(C2=CSC3=NCCN23)cc1Cl | < 3.70 | 4.03 | –
O=C1C=C(Nc2ccc(S(=O)(=O)Nc3nccs3)cc2)c2ccccc2C1=O | < 3.50 | 4.41 | –
COc1ccc(C([Se]c2ccccc2)C2C(=O)N(O)CC(=O)N2O)cc1 (stereo unspecified) | – | – | inactive
O=C1/C(=C/c2ccccc2)CSC/C1=C\c1ccccc1 | < 3.70 | 5.62 | –
COc1cc(OC)cc(Oc2nc3c(N)cc(C(F)(F)F)cc3nc2-c2ccccc2)c1 | < 3.70 | < 3.70 | –
CN1C(=O)c2ccccc2N=CN1C(=O)Nc1ccccc1 | < 3.91 | < 3.91 | –
CN(N=O)C(=O)NC(C=O)C(O)C(O)C(O)CO (stereo unspecified) | < 3.70 | < 3.70 | –
Cc1cn(C2CC(OC(c3ccccc3)(c3ccccc3)c3ccccc3)C(CO)O2)c(=O)[nH]c1=O (stereo unspecified) | < 3.70 | 4.98 | –
COc1cccc(Nc2nc(NNC(=O)Cc3ccccc3)nc(NNC(=O)c3ccncc3)n2)c1 | < 3.70 | < 3.70 | –
C(=C/[PH+](c1ccccc1)c1ccccc1)/[PH+](c1ccccc1)c1ccccc1.O=C([O-])C(F)(F)F.[C-]#[O+].[C-]#[O+].[C-]#[O+].[Mn] | < 5.09 | 6.23 | –
N/C(=N\N=C\c1c[nH]c2cc(C(F)(F)F)ccc2c1=O)NO | < 3.70 | 4.05 | –
COC1(C)C=NCC(C)(C)NC(=O)C(C)(OC)C=NCC(C)(C)NC1=O (stereo unspecified) | < 4.85 | < 4.85 | –
O=C(CCc1ccc(O)cc1)c1c(O)cc(O)cc1OC1OC(CO)C(O)C(O)C1O (stereo unspecified) | < 3.70 | < 3.70 | –
CCOC(=O)/C(=C/c1cccc(Cl)c1)C(=O)c1ccccc1 | < 4.92 | < 4.92 | –
c1csc(-c2nn3c(C45CC6CC(CC(C6)C4)C5)nnc3s2)c1 | < 3.70 | < 3.70 | –

Compound | pEC50 | pIC50 | outcome
O=C(O)C1COCN1C(=O)c1cccnc1SSc1ncccc1C(=O)N1COCC1C(=O)O (stereo unspecified) | < 3.70 | < 3.70 | –
CN1NC2(CCCCC2)ON=C1c1ccccc1 | – | – | inactive
C=C1C(=O)O[C@@H]2[C@H]1CC[C@H](C)[C@@H]1CCC(=O)[C@@]21C | < 3.70 | 5.47 | –
CCCCCCCCCCCCS(=O)(=O)O | – | – | inactive
C=C1[C@@H](OC(C)=O)[C@H]2[C@@H](OC(C)=O)[C@@](C)(OC(C)=O)C[C@]2(OC(C)=O)C(=O)[C@@H](C)/C=C/C(C)(C)C(=O)C[C@H]1OC(C)=O | < 3.70 | 4.14 | –
O=C(O)CN1CCN2CCOCCN(CC1)CCN(CC(=O)O)CC2 | < 3.70 | < 3.70 | –
CC(=O)/C(=C/N1CC(=O)NC1=S)C(=O)Nc1ccccc1C | < 3.70 | < 3.70 | –
COC(=O)c1c2oc3c(C(=O)OC)cccc3nc-2cc(N)c1=O | – | – | inactive
Cc1ccnc2nc3[nH]c4ccccc4c3cc12 | < 3.90 | < 3.90 | –
CC1(C)OC(=O)C(C#N)=C1/C=C/c1coc2ccc(Cl)cc2c1=O | < 4.53 | < 4.53 | –
O=[N+]([O-])c1cccc2nc3ccccc3c(NCCNCCO)c12 | < 5.70 | 7.50 | –
O=C(O)CSc1n[nH]c(-c2ccccc2O)n1 | < 3.43 | 3.74 | –
Cn1c2ccccc2c(=NNc2ccc(C(=O)O)cc2)c2ccccc21 | < 3.70 | 4.86 | –
COc1ccc(C2CC(=O)c3c(cc(OC)c(O)c3OC)O2)cc1 (stereo unspecified) | < 3.70 | 4.49 | –
Cc1ccc(-c2n[nH]c(=O)n2/N=C\c2ccccc2)cc1 | < 3.70 | 3.96 | –
N#C/C(=C/N1CCNC1=S)C(N)=O | < 3.70 | < 3.70 | –
c1ccc2c(c1)c1c(n2CCOCCN2CCOCC2)CCCC1 | < 3.70 | 3.95 | –
CCOC(=O)C(CCC1OCCO1)C(C)=O (stereo unspecified) | < 3.70 | < 3.70 | –
Cn1ccnc1.Cn1ccnc1.[O-][Cl+3]([O-])([O-])[O-].[Pt+2].c1ccc(-c2ccccn2)nc1 | < 3.70 | < 3.70 | –
O=c1c2cccnc2ncn1CCN1CCCC1 | – | – | inactive
CC1=C(/C=C/C2=CC(=C\C(=O)O)/CC(C3=C(C)CCCC3(C)C)C2)C(C)(C)CCC1 (stereo unspecified) | – | – | inactive
CCCCCCCCCCCCCCCCCCNc1nc(=O)n(C2CC(O)C(COP(=O)(O)OCC3CCC(n4ccc(N)nc4=O)O3)O2)cc1F (stereo unspecified) | 5.82 | 5.69 | –

Compound | pEC50 | pIC50 | outcome
Cn1c(=O)c2ccc(-c3ccc(Br)cc3)nc2n(C)c1=O | – | – | inactive
NC1=NS(=O)(=O)N=C(N)C1=NNc1ccc([N+](=O)[O-])cc1 | < 3.10 | 3.90 | –
CCOC(=O)Cn1c(=O)[nH]c(=O)c2c1ncn2Cc1ccccc1 | < 3.26 | 3.29 | –
COc1ccc(C(=O)CC(=O)C(=O)Nc2ccc(C)c(C)c2)cc1 | < 4.65 | < 4.65 | –
CC(C)c1nc2c(Cl)c3ncccc3cc2[nH]c1=O | < 4.00 | 4.40 | –
CC(C)(C)OC(=O)[N+](=N)C(=O)C1CCC(=O)N1C(=O)OCc1ccccc1 (stereo unspecified) | < 3.70 | < 3.70 | –
NC(=O)NC(S(=O)(=O)O)S(=O)(=O)O | – | – | inactive
COC(=O)C(Cc1ccc2c(c1)CCC2)Cc1ccc2c(c1)CCC2 | < 3.70 | 3.95 | –
CCCCCCCCCCCCOCCCCCCCCC/C=C/c1ccc2c(c1)OCCOCCOCCOCCO2 | < 3.70 | 4.82 | –
O=C1OC(=O)c2ccc3c4c(ccc1c24)C(=O)OC3=O | < 3.03 | < 3.03 | –
CCC1(O)CCCC2C3CCC4CC(=O)CCC4(C)C3C(=O)CC21C (stereo unspecified) | < 3.70 | 3.98 | –
Nc1nc2sc3ccccc3c(=O)n2n1 | < 4.04 | < 4.04 | –
NCCCCCNOCCCN | < 3.70 | 3.88 | –
N#Cc1nc(NC(=O)c2ccccc2C(=O)O)c(C#N)[nH]1 | < 3.70 | < 3.70 | –
CCOC(=O)[C@H]1Nc2c(cccc2[N+](=O)[O-])[C@H]2OCC[C@@H]12 | < 3.35 | < 3.35 | –
c1ccc(COC[C@H]2O[C@@H](c3ccccc3)C[C@@H](OCc3ccccc3)C2OCc2ccccc2)cc1 (stereo partly specified) | < 3.70 | < 3.70 | –
CC(C)NC(=O)/C=C/C=C/c1ccc(Cl)cc1 | < 4.54 | < 4.54 | –
CC[C@@H]1C[C@H]2CC3c4[nH]c5ccc(O)cc5c4CCN(C2)C31 | < 3.43 | 4.03 | –
Nc1ccc2c(C(F)(F)F)cc(=O)oc2c1 | < 4.64 | < 4.64 | –
Cc1ccccc1C1CC(=O)CC(c2ccccc2C)C12C(=O)NC(=O)NC2=O (stereo unspecified) | < 3.70 | 3.98 | –
COC1=C(C)C(=O)C2=C(C1=O)C1C3CC4=C(C(=O)C(OC)=C(C)C4=O)C(CNC(=O)C(C)=O)N3C(C#N)C(C2)N1C (stereo unspecified) | < 5.92 | 7.61 | –
